Test results from article PMC6053381, “Novel 2-phenyloxypyrimidine derivative induces apoptosis and autophagy via inhibiting PI3K pathway and activating MAPK/ERK signaling in hepatocellular carcinoma cells” (Scientific Reports, 2018).
Where two headings read alike, the source gives them in different places.

How the values were obtained:
QGY-7703 = experiment: CellTiter-Glo luminescent cell viability assay; assay type: cell-based; details: read-out: Anti-proliferative activity IC50 QGY-7703
Text: (§1) The in vitro antitumor activity of all compounds was screened against six HCC cell lines by CellTiter-Glo luminescent cell viability assay as described earlier. […] After a comprehensive assessment of PDGFR inhibition, cellular activity against HCC cells as well as potential druggability, E5 was chosen to investigate its kinase profiling, antitumor activity and molecular mechanism in the following study. […]
(§2) authenticated by using short tandem repeat (STR) matching analysis. No mycoplasma contamination was detected.
(§3) CellTiter-Glo luminescent cell viability assay
(§4) For experiments hepatocellular carcinoma cells were seeded at 4000 cells per well in 96-well plates. After overnight incubation, solution of compounds in DMSO at various concentrations were added to the cells and further incubated for 120 h. Cell viability was measured with the CellTiter-Glo Luminescent Cell Viability Assay (Promega) according to the manufacturer’s instructions. Luminescence was measured using an EnVision Multilabel Plate Reader (Perkin-Elmer). The cytotoxicity of the compounds was expressed as the percent age of luminescence relative to that of untreated cells . The concentration of compound producing 50% of cell proliferation (IC50) was calculated by nonlinear regression analysis of the response-concentration (log) curve, using the Graph-Pad Prism program package (Graph Pad Software; San Diego, CA). Results are expressed as the means of two […] experiments

SMMC-7721 = experiment: CellTiter-Glo luminescent cell viability assay; assay type: cell-based; details: read-out: Anti-proliferative activity IC50 SMMC-7721
Text: as §1, §2, §3, §4

BEL7404 = experiment: CellTiter-Glo luminescent cell viability assay; assay type: cell-based; details: read-out: Anti-proliferative activity IC50 BEL7404
Text: as §1, §2, §3, §4

Hep3B = experiment: CellTiter-Glo luminescent cell viability assay; assay type: cell-based; details: 120 h incubation, read-out: Anti-proliferative activity IC50 Hep3B
Text: as §1, §2, §3, §4

SNU368 = experiment: CellTiter-Glo luminescent cell viability assay; assay type: cell-based; details: 120 h incubation, read-out: Anti-proliferative activity IC50 SNU368
Text: as §1, §2, §3, §4

MHCC97-L = experiment: CellTiter-Glo luminescent cell viability assay; assay type: cell-based; details: 120 h incubation, read-out: Anti-proliferative activity IC50 MHCC97-L
Text: as §1, §2, §3, §4

PDGFRα = PDGFRα (Homo sapiens, UniProt P16234); experiment: PDGFR kinase assay, Caliper microfluidic mobility shift; assay type: biochemical; details: compound at 1 µM, averages of two separate experiments
Description: (§5) In vitro inhibitory activities of all compounds at 1 μM against PDGFRα and PDGFRβ were evaluated using Caliper microfluidic mobility shift technology. […] At the same concentration, only E5 inhibited greater than 50% of PDGFRβ activity (Fig. 2B).
(§6) PDGFR kinase activity was measured using Caliper microfluidic mobility shift technology. Briefly, 2 μL compound solution (25 μM) in 25% DMSO per well were added into the 384 well microtiter plates. Then, 10 μL per well of enzyme solution (100 mM HEPES, 10 mM MgCl2, Brij35 (30%) 100 μL, 1 mM DTT, 20 ng enzyme) was added. After a brief centrifugation at 1,000 rpm, the kinase reactions were started by addition of 38 μL per well of peptide/ATP-solution (40 μM ATP, 6.5 μM peptide 5′-FAM-KKKKEEIYFFF-NH2, Tris-HCl buffer, pH 7.0) incubated at 30 °C for 60 min and stopped by the addition of 20 μL 35 mM EDTA per well. The electrophoretic separation of the phosphorylated and non-phosphorylated peptides was then carried out on LabChip EZ Reader II (Caliper Life Sciences). All other kinase reactions were carried out as previously reported using the Kinase-Glo Plus or ADP-Glo assay. Kinase inhibition rates were calculated per manufacturer’s instructions.

PDGFRβ = PDGFRβ (Homo sapiens, UniProt P09619); experiment: as above; assay type: biochemical; details: compound at 1 µM, averages of two separate experiments
Description: as §5, §6

Chain of PDGFRα (P16234 24-1089): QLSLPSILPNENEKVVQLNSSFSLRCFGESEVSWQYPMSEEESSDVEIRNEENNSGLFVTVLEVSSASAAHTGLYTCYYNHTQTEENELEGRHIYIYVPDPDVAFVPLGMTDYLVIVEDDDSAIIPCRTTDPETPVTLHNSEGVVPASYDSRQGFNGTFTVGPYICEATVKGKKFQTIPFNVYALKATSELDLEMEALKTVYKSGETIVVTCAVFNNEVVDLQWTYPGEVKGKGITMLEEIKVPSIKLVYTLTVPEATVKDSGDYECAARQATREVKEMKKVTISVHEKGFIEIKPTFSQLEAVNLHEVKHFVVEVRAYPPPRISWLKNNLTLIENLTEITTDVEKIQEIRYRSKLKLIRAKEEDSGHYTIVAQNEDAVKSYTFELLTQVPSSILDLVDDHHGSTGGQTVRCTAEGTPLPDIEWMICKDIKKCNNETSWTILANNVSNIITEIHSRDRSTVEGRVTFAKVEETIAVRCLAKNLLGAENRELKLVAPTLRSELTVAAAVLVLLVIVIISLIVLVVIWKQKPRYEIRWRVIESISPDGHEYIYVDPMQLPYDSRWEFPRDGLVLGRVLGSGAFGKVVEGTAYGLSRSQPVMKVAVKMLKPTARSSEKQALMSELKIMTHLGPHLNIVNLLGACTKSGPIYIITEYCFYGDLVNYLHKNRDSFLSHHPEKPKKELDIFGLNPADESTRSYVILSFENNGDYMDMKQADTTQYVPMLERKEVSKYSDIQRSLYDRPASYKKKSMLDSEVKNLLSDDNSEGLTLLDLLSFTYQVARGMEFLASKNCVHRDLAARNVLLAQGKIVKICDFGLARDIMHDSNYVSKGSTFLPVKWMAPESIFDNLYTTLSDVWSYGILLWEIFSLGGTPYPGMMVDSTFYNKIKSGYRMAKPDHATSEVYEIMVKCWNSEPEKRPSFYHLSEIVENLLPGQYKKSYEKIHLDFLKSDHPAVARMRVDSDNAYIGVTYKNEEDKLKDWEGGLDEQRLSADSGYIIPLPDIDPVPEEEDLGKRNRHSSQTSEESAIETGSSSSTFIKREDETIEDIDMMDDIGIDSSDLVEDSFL
Chain of PDGFRβ (P09619 33-1106): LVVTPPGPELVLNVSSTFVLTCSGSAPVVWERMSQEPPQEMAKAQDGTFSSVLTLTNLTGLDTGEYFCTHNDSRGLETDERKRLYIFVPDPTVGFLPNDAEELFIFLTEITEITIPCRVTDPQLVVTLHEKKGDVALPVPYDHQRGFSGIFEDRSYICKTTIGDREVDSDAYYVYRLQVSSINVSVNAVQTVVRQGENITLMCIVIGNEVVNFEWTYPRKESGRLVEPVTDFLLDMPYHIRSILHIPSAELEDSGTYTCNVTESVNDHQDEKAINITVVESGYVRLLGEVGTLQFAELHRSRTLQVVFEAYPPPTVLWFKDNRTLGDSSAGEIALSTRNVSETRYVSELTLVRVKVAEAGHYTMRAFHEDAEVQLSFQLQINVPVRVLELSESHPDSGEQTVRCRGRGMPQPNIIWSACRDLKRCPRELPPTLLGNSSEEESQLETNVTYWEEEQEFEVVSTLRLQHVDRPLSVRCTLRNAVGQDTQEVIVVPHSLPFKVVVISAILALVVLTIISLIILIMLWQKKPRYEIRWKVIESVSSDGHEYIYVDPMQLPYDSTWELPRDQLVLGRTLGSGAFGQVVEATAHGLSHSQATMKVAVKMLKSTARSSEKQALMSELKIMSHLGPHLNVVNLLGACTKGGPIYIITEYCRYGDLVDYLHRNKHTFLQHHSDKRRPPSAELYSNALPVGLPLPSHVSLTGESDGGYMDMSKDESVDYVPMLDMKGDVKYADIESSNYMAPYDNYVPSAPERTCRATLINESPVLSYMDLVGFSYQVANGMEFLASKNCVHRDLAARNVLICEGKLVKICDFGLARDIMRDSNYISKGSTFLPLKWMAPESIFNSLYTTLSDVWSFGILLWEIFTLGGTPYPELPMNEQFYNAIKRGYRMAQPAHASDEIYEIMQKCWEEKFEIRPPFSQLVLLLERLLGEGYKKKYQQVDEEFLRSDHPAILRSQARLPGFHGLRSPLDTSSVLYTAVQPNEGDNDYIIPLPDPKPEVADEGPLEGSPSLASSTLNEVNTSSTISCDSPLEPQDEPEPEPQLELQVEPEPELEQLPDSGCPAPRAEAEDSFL

| IC50 (SMMC-7721; Homo sapiens, SMMC-7721, 120 h incubation) | IC50 (BEL7404; Homo sapiens, BEL-7404, 120 h incubation) | IC50 (Hep3B; Homo sapiens, Hep3B) | IC50 (SNU368) | inhibition at 1 µM (PDGFRα; read-out: Inhibition effect (%) PDGFRα) | inhibition at 1 µM (PDGFRβ; read-out: Inhibition effect (%) PDGFRβ) | IC50 (SMMC-7721; 120 h incubation) | IC50 (BEL7404; 120 h incubation) | IC50 (Hep3B) | Inhibition effect (%) PDGFRβ (PDGFRβ) | Inhibition effect (%) PDGFRα (PDGFRα) | Structure (SMILES) | IC50 (QGY-7703; Homo sapiens, QGY-7703, 120 h incubation) | IC50 (MHCC97-L; MHCC97L) | IC50 (QGY-7703; 120 h incubation) | IC50 (MHCC97-L) |
| --- | --- | --- | --- | --- | --- | --- | --- | --- | --- | --- | --- | --- | --- | --- | --- |
| 13.6 µM | 10.8 µM | 15.8 µM | 85.7 µM | 39.1% | 21.4% |  |  |  |  |  | Cc1ccc(N)cc1Oc1nccc(-c2cccnc2)n1 [A1] | 24.5 µM | 15.1 µM |  |  |
|  |  |  | 112 µM |  |  | 84.3 µM | 39.3 µM | 39.5 µM | 40.73% |  | Cc1ccc(NC(=O)Cc2ccccc2)cc1Oc1nccc(-c2cccnc2)n1 [A2] |  |  | 59.8 µM | > 200 µM |
|  |  |  | 51.4 µM |  |  | 25.1 µM | 32.8 µM | 21.2 µM | 45.50% | 45.45% | Cc1ccc(C(=O)Nc2ccc(C)c(Oc3nccc(-c4cccnc4)n3)c2)cc1 [A3] |  |  | 47 µM | 22.3 µM |
|  |  |  | 54 µM |  |  | 17.5 µM | 12.2 µM | 17.5 µM | 43.74% |  | Cc1cccc(C(=O)Nc2ccc(C)c(Oc3nccc(-c4cccnc4)n3)c2)c1 [A4] |  |  | 39.8 µM | 24.5 µM |
|  |  |  | 49.5 µM |  |  | 23.5 µM | 15.6 µM | 23.3 µM | 33.70% | 45.20% | COc1ccc(C(=O)Nc2ccc(C)c(Oc3nccc(-c4cccnc4)n3)c2)cc1 [A5] |  |  | 40.5 µM | 31.3 µM |
|  |  |  | 24 µM |  |  | 12.3 µM | 9.5 µM | 10.7 µM | 35.96% | 47.73% | Cc1ccc(NC(=O)c2ccc(Cl)cc2)cc1Oc1nccc(-c2cccnc2)n1 [A6] |  |  | 21.9 µM | 16.2 µM |
|  |  |  | 45.9 µM |  |  | 27.2 µM | 32.8 µM | 18.9 µM | 40.23% |  | Cc1ccc(NC(=O)c2cccc(Cl)c2)cc1Oc1nccc(-c2cccnc2)n1 [A7] |  |  | 57.8 µM | 51.5 µM |
|  |  |  | 25.7 µM |  |  | 10.1 µM | 20.1 µM | 14.3 µM | 43.24% |  | Cc1ccc(NC(=O)c2ccc([N+](=O)[O-])cc2)cc1Oc1nccc(-c2cccnc2)n1 [A8] |  |  | 24.6 µM | 34.6 µM |
|  |  |  | 51.5 µM |  |  | 26.8 µM | 23.8 µM | 28.4 µM | 23.41% | 23.63% | Cc1ccc(NC(=O)c2cccc([N+](=O)[O-])c2)cc1Oc1nccc(-c2cccnc2)n1 [A9] |  |  | 48.4 µM | 53.2 µM |
|  |  |  | 38.7 µM |  |  | 21.1 µM | 28.2 µM | 20.1 µM | 30.94% | 40.63% | Cc1ccc(NC(=O)c2ccc(F)cc2)cc1Oc1nccc(-c2cccnc2)n1 [A10] |  |  | 43.4 µM | 35.7 µM |
|  |  |  | 94.6 µM |  |  | 79.7 µM | 74.2 µM | 105 µM | 6.84% | 42.91% | Cc1ccc(NC(=O)c2cccnc2)cc1Oc1nccc(-c2cccnc2)n1 [A11] |  |  | 252 µM | 89.3 µM |
|  |  |  | 287 µM |  |  | 113 µM | 134 µM | 130 µM | 31.94% | 43.17% | Cc1ccc(NC(=O)c2ccncc2)cc1Oc1nccc(-c2cccnc2)n1 [A12] |  |  | 170 µM | 281 µM |
|  |  |  | 17.7 µM |  |  | 2.7 µM | 10.5 µM | 2.7 µM | 12.87% | 2.32% | Cc1ccc(NC(=O)c2ccccc2)cc1Oc1nccc(-c2ccccc2)n1 [B1] |  |  | 5.8 µM | 4.9 µM |
|  |  |  | 24.8 µM |  |  | 11.7 µM | 14.4 µM | 13 µM | 17.63% | 21.09% | Cc1ccc(NC(=O)Cc2ccccc2)cc1Oc1nccc(-c2ccccc2)n1 [B2] |  |  | 20.6 µM | 16.9 µM |
|  |  |  | 12.8 µM |  |  | 6 µM | 3.7 µM | 4.6 µM | 26.17% | 23.12% | Cc1ccc(C(=O)Nc2ccc(C)c(Oc3nccc(-c4ccccc4)n3)c2)cc1 [B3] |  |  | 7.3 µM | 6.1 µM |
|  |  |  | 12.9 µM |  |  | 6.2 µM | 9.5 µM | 6.4 µM | 24.42% | 35.04% | Cc1cccc(C(=O)Nc2ccc(C)c(Oc3nccc(-c4ccccc4)n3)c2)c1 [B4] |  |  | 10.2 µM | 7 µM |
|  |  |  | 15.8 µM |  |  | 8.4 µM | 7.9 µM | 9.2 µM | 19.39% | 1.81% | COc1ccc(C(=O)Nc2ccc(C)c(Oc3nccc(-c4ccccc4)n3)c2)cc1 [B5] |  |  | 14.9 µM | 9.8 µM |
|  |  |  | 15 µM |  |  | 9.7 µM | 13.4 µM | 7.9 µM | 18.64% | 12.21% | Cc1ccc(NC(=O)c2ccc(Cl)cc2)cc1Oc1nccc(-c2ccccc2)n1 [B6] |  |  | 15.4 µM | 10.5 µM |
|  |  |  | 14 µM |  |  | 17 µM | 18.3 µM | 15.5 µM | 16.63% | 31.49% | Cc1ccc(NC(=O)c2cccc(Cl)c2)cc1Oc1nccc(-c2ccccc2)n1 [B7] |  |  | 25.8 µM | > 200 µM |
|  |  |  | 12 µM |  |  | 7.5 µM | 9.9 µM | 9 µM | 37.71% | 26.17% | Cc1ccc(NC(=O)c2ccc([N+](=O)[O-])cc2)cc1Oc1nccc(-c2ccccc2)n1 [B8] |  |  | 14.4 µM | 14 µM |
|  |  |  | 16.8 µM |  |  | 13.8 µM | 12.9 µM | 83.2 µM | 19.14% | 21.34% | Cc1ccc(NC(=O)c2cccc([N+](=O)[O-])c2)cc1Oc1nccc(-c2ccccc2)n1 [B9] |  |  | 19.2 µM | > 200 µM |
|  |  |  | 12.6 µM |  |  | 3.9 µM | 8.1 µM | 5.8 µM | 15.63% | 19.57% | Cc1ccc(NC(=O)c2ccc(F)cc2)cc1Oc1nccc(-c2ccccc2)n1 [B10] |  |  | 10.9 µM | 6.3 µM |
|  |  |  | 18 µM |  |  | 20.2 µM | 21.6 µM | 44.2 µM | 5.08% | 32.00% | Cc1ccc(NC(=O)c2cccnc2)cc1Oc1nccc(-c2ccccc2)n1 [B11] |  |  | 81.1 µM | 53.5 µM |
|  |  |  | 11.4 µM |  |  | 0.4 µM | 5.2 µM | 15.8 µM | 7.35% | 27.18% | Cc1ccc(NC(=O)c2ccoc2)cc1Oc1nccc(-c2cc3ccccc3o2)n1 [E4] |  |  |  |  |
